Measured values taken from US12605462B2, “Porous silicon nanoparticle-based drug delivery system inducing reactive oxygen species and self-activation thereof, and method for preparing same” (University-Industry Cooperation Group of Kyung Hee …, priority 2021, dated 2026).

Assays:
[1] = system: nuclear factor erythroid 2-related factor 2 (Nrf2); test: Nrf2 expression in BxPC-3 cells by Western blot (TEPITC/PEITC); type: cell-based, Human; settings: for time of greatest increase in Nrf2 expression after incubation / expression of Nrf2: 20 μM; for expression of Nrf2: 0 to 4 hours
Method: Oxidative stress-related signaling pathways were analyzed to confirm the association between […] treatment and intracellular ROS upregulation. PEITC was used as a positive control group. PEITC is known to induce Nrf2 accumulation in human prostate cancer PC-3 cells and increase the expression of endogenous heme oxygenase-1 (HO-1) protein. According to FIG. 7A, BxPC-3 cells were treated with […] It is noteworthy that the expression of Nrf2 in the […] treatment group was maximum 30 minutes after incubation began but decreased from 1 hour later.

BxPC-3 cells [2] = test: PEITC/TEPITC-induced intracellular ROS generation (DCFDA/DCF kit, CLSM); type: cell-based, Human; settings: 20 μM, 2 hours; for fluorescence intensity-based enhancement factor (DCF, ROS level) compared with before chemical treatment: FIG. 4 (BxPC-3)
Method: The intracellular ROS levels of cells were analyzed using the 2',7'-dichlorofluorosine diacetate (DCFDA/H2DCFDA) cell ROS detection analysis kit. BxPC-3, AsPC-1, and PANC-1 cells (1×10^5 cells/mL, 100 μl/well) were inoculated into 96-well black plates and incubated at 37° C. for 24 hours. The cells were then treated with PEITC or […] at 1.25, 2.5, 5, 10, and 20 μM, respectively, and then incubated at 37° C. for 2 hours. As a positive control group, a set treated with hydrogen peroxide (H2O2) was prepared. The cells were then treated with 20 μM DCFDA (100 μl) at 37° C. for 45 minutes. Excitation/emission wavelengths at 485/535 nm were measured with a microplate reader (Fluorostar Omega, BMG Labtech, Germany). Intracellular ROS generation was assessed by CLSM (LSM800, Carl Zeiss, Oberkochen, Germany) imaging using BxPC-3 cells. BxPC-3 cells (1×10^5 cells/mL, 2 mL) were inoculated into confocal plates. After 24 hours incubation, cells were treated with 20 μM PEITC and […] for 2 hours. The cells were then stained with 20 μM DCFDA (200 μL) at 37° C. for 45 minutes, washed 3 times with PBS, and stained with DAPI for 10 minutes. After washing 3 times, the cells were fixed with 4% paraformaldehyde for 20 minutes. The excitation and emission channels are: DAPI (405 nm, 400-520 nm band filter), ROS (488 nm, 400-585 nm band filter). Cells were contacted with ITC, and intracellular ROS generation was assessed. Human pancreatic cell lines BxPC-3, AsPC-1, and PANC-1 were treated with […], and ROS levels were measured using the DCFDA/DCF kit. When 2',7'-dichlorofluorescein diacetate (DCFDA) diffuses into cells, it is deacetylated to H2DCF by cellular esterase, and when H2DCF comes into contact with ROS, it is converted to green fluorescent DCF. Phenethyl isothiocyanate (PEITC) and H2O2 were used as positive control groups. Each chemical substance ([…], and H2O2, concentration=0 to 20 μM) were treated on the cell line and incubated for 2 hours.

heme oxygenase-1 (HO-1) = test: HO-1 expression in BxPC-3 cells by Western blot; type: cell-based, Human; settings: 5 μM, 0 to 6 hours
Method: The expression level of HO-1, an antioxidant enzyme essential for cell protection against oxidative stress, was also analyzed. Cells were treated with […] (5 μM) and incubated for 0 to 6 hours. […] This is thought to be because Nrf2 is a transcription factor that regulates the expression of HO-1.

BxPC-3 cells [3] = test: Cytotoxicity of isothiocyanates (CCK-8 assay); type: cell-based, Human; settings: 10 μM, 24 hours
Method: Next, the cytotoxicity of TEPITC was analyzed. BxPC-3 cells were treated with 0 to 10 μM of TEPITC or PEITC and incubated for 24 hours, and cytotoxicity and viability were analyzed by CCK-8 assay.

Nrf2 = Nrf2 immunofluorescence / nuclear translocation (CLSM); type: cell-based, Human; settings: 30 minutes, BxPC-3
Method: CLSM imaging was used to verify that […] induces nuclear translocation of cytoplasmic Nrf2. BxPC-3 cells were treated with […] (0 to 10 μM), incubated for 30 minutes, and visualized by treatment with Nrf2 antibody and DAPI.

[4] = Conversion of JS-11 to SN-38 by ROS (emission change); type: physicochemical; settings: 37° C.; reacted only with H2O2
Method: To confirm whether JS-11 is converted to SN-38 by ROS, the change in the emission spike of JS-11 using H2O2 at 37° C. was measured. Since JS-11 has no electron push-pull capability, there is no emission in aqueous media but decomposes upon exposure to H2O2 and fluoresces at 560 nm.

BxPC-3 cell lines = test: In vitro cytotoxicity of nano-formulations; type: cell-based; settings: human
Method: Next, the cytotoxicity of pSiNP, JS-11, pSiNPs (JS-11), and ROSG-pSiNP (JS-11) was evaluated for BxPC-3 cell lines. The throughput of pSiNP (JS-11) and ROSG-pSiNP (JS-11) was corrected with the concentration of JS-11 (0 to 10 μM).
The cytotoxicity of two nano-formulations, pSiNP-NCS (without JS-11 and TEPITC-modifying) and pSiNP-NCS/CGKRK (SEQ ID NO: 1) (without JS-11 and CGKRK-modifying), was further analyzed to confirm the synergistic cytotoxic effect of JS-11 and TEPITC.

BxPC-3 pancreatic tumors = test: Therapeutic efficacy in pancreatic cancer xenograft model mice; type: in vivo; settings: 20 mg/kg via tail vein on days 34, 37, 40, 43; FIG. 25
Method: BALB/c nude mice (females and males, 4 weeks and 5 weeks old) were commercially obtained from Nara Co., Ltd., Gyeonggi-do, Korea. BxPC-3 cells (5×10^6 cells, suspended in 100 μl mixture of RPMI medium and Matrigel, 1:1) were injected subcutaneously behind the flank of each mouse. All animal experiments were performed according to the guidelines of the Korea Kyunghee University Animal Care Committee (IACUC).
Tumor-bearing mice were randomly divided into 5 groups (n=5 per group). (1) PBS only, (2) pSiNP only, (3) JS-11, (4) pSiNP (JS-11), and (5) ROSG-pSiNP (JS-11) were administered by intravenous injection (i.v.) 4 times at intervals of 3 days at a dose of 20 mg/kg, 100 μl each.
The mouse tumor size was recorded every 3 days until the end of the experiment, and the tumor volume was calculated by the formula V=[(tumor length)×(tumor width)^2]/[…]. At the end of the experiment (day 22), the body of each mouse was photographed with a digital camera, and body weight was measured.
Finally, the cancer treatment efficacy of ROSG-pSiNP (JS-11) was evaluated in pancreatic cancer xenograft model mice. To induce pancreatic tumors, BxPC-3 cells were injected subcutaneously behind the flank of mice on day 0. […] Changes in tumor volume and body weight in mice were monitored, and toxic effects were investigated for practical applications.

| SMILES | time of greatest increase in Nrf2 expression after incubation [1] [min] | expression of Nrf2 [1] | fluorescence intensity-based enhancement factor (DCF, ROS level) compared with before chemical treatment (BxPC-3 cells [2]) [times] | increase in Nrf2 level, concentration dependence ([1]; 0 to 20 μM) | expression level of intracellular HO-1 (heme oxygenase-1 (HO-1)) | time of highest HO-1 expression (heme oxygenase-1 (HO-1)) | intracellular ROS level (fluorescence analysis and CLSM images) (BxPC-3 cells [2]; BxPC-3) | cytotoxicity compared to the untreated group cells (BxPC-3 cells [3]) | Nrf2 immunofluorescence localisation (Nrf2; 2.5 μM) | Nrf2 immunofluorescence localisation (Nrf2; 5 μM) | Nrf2 immunofluorescence localisation (Nrf2; 10 μM) | conversion to SN-38 under pH 3 to 10, metal ions and biomolecules [4] | cytotoxicity (BxPC-3 cell lines; 0.625 μM) [%] | cytotoxicity (BxPC-3 cell lines; 10 μM) [%] | mean tumor volume (BxPC-3 pancreatic tumors) [mm^3] |
| --- | --- | --- | --- | --- | --- | --- | --- | --- | --- | --- | --- | --- | --- | --- | --- |
| S=C=NCCc1ccccc1 [PEITC, Phenethyl isothiocyanate, reference compound] | 30 | significantly increased | 3.67 | – | – | – | – | – | – | – | – | – | – | – | – |
| CCO[Si](CCCN=C=S)(OCC)OCC [TEPITC, 3-isothiocyanatopropyltriethoxysilane] | 30 | significantly increased | 6.34 | concentration-dependent in the range of 2.5 to 10 μM | significantly increased | 2 h and 4 h | upregulates the intracellular ROS level, and the effect was superior to PEITC | up to 80% | increase in Nrf2 expression in the cytoplasm | in the nucleus Nrf2 expression was observed | Nrf2 signal in the nucleus was weakened | – | – | – | – |
| CCc1c2c(nc3ccc(OC(=O)c4ccccc4Nc4cccc(C)c4C)cc13)-c1cc3c(c(=O)n1C2)COC(=O)[C@]3(O)CC [JS-11] | – | – | – | – | – | – | – | – | – | – | – | did not show the conversion to SN-38 | 21.60 | 42.4 | 183.1±40.8 |
